This note sets out measurements from US5457092A, “Methods of promoting bone growth in mammals comprising administration of modified parathyroid hormone” (Gesellschaft fur Biotechnologische Forschung mbH (GBF), priority 1987, dated 1995).

This assay relates to chondrocytes from sterna of 16-day-old embryonic chicks. Description: Stimulation of DNA synthesis in chondrocytes by PTH fragments (Table 1). The settings on record: for [^3 H]thymidine incorporation: 4 h, control 324 ± 18; for E/C: stimulated / non-induced control cells. It counts as cell-based, chick. Here is the method: Chondrocytes were isolated from sterna of 16-day-old embryonic chicks according to J. Biol. Chem., 261 (1986) 7997-8001 (10; Yasui et al.) with some modifications. Collagenase was dissolved in Hanks' balanced salt solution (0.4 mM Na2 HPO4, 140 mN NaCl, 5.3 mM KCl, 0.4 mM MgSO4, 1.3 mM CaCl2, 0.4 mM KH2 PO4, 0.5 mM MglC2, 5 mM glucose, 0.05% gentamicin) at a concentration of 286 units/ml. Sterna were treated repeatedly for 30 min with collagenase solution at 37° C. Cells first released by this procedure were discarded because of their very poor responsiveness towards PTH. The collagenase treatment was subsequently repeated leading to a highly homogenous cell population of chondrocytes. The cells obtained by a second collagenase treatment were collected by centrifugation (1000 rpm, 10 min), washed twice with medium (Dulbecco's modified Eagle's medium, GIBCO, supplemented with NaHCO3 (45 mM), glutamine (2 mM), penicillin G/streptomycin (65 mg/1 and 100 mg/l, respectively), Hepes (10 mM, pH 7.2), and FCS (10% v/v) and counted.
The DNA synthesis rate was assayed in monolayer culture by the incorporation of ]^3 H]thymidine into perchloric acid-precipitable material. […] After 17 h, the medium was replaced by 200 μl of serum-free medium. After 4 days, chondrocytes were incubated for 4 h with the appropriate effector and 1μ Ci of [^3 H]thymidine. Subsequently, medium was removed and the cells were washed twice with 200 μl of phosphate-buffered saline (PBS: 137 mM NaCl, 2.7 mN KCl, 1.5 mM KH2 PO4, 0.8 mN Na2 HPO4, pH 7.0). Then cells were lysed by 100 μl of 2% (v/v) Nonidet P- 40 and 2% (w/v) sodium dodecyl sulfate treatment and the perchloric acid-insoluble material was precipitated by adding an equal volume of ice-cold 2% (w/v) perchloric acid in the presence of 1% herring sperm DNA as carrier. After storage for 10 min at -20° C., the precipitated material of each well was transferred to glass fiber filters with a Scatron--As semiautomatic cell harvester. Filters were dried at 80° C. for 20 min, transferred into scintillation vials, and 2 ml of scintillation mixture (scintillator 299; United Technology Pachard) were added. Radioactivity of the samples was determined with a β counter (Minimax; United Technology Pachard). Each test consisted of 5 up to 10 identically treated wells and was repeated at least twice with freshly prepared chondrocytes.
The incorporation of [^3 H]thymidine by non-induced control cells and by stimulated cells is shown by C and E, respectively. The results shown mean ±S.E. for n parallel cell cultures.

For “hPTH(25-39): PTH fragment 25-39, human source (RKKLQDVHNFVALGA; Parathyroid hormone; UniProt P01270 56-70, looked up, fragment)”, the “[^3 H]thymidine incorporation” value (6.1 × 10^-4 mol/l) was found to be 542 ± 71 cpm; the “[^3 H]thymidine incorporation” value (6.1 × 10^-5 mol/l) came to 655 ± 147 cpm; the “[^3 H]thymidine incorporation” value (6.1 × 10^-6 mol/l) came out at 517 ± 65 cpm; the “[^3 H]thymidine incorporation” value (6.1 × 10^-7 mol/l) was 418 ± 41 cpm; the “[^3 H]thymidine incorporation” value (6.1 × 10^-8 mol/l) was found to be 452 ± 56 cpm. For the same substance, the E/C is recorded as 1.67 (6.1 × 10^-4 mol/l); 2.02 (6.1 × 10^-5 mol/l); 1.60 (6.1 × 10^-6 mol/l); 1.29 (6.1 × 10^-7 mol/l); 1.40 (6.1 × 10^-8 mol/l).
